Patent US9708321B2, “Spiro-quinazolinone derivatives and their use as positive allosteric modulators of mGluR4” (Merck Patent GmbH, priority 2013, dated 2017)

Target: T1, hmGluR4 (Homo sapiens, UniProt Q14833)
T1 construct: host or cells: HEK293T
Assay: HEK-293 mGluR4 cells cAMP assay with EC20 L-Glutamate (HTRF)
Format: cell-based
Conditions: positive allosteric activity at EC20 L-Glutamate, 10 μM Forskolin, HEK293T mGluR4 cells, cAMP HTRF; read-out: hrmGluR4/HEK293T-hmGluR4 (EC50)
Description: II. Biological Assays HEK-293 mGluR4 Cells cAMP Assay with EC20 L-Glutamate
Using mGluR4 suspension cell format, 10 μM Forskolin (final conc.) used to induce the production of cAMP.
Test the positive allosteric activity of the compounds of the invention at EC20 (2.3 μM for mGluR4 and 4.3 μM for mGluR6) L-Glutamate,
cAMP dymanic2 kit is intended for the direct quantitative determination of cAMP and its principle is based on HTRF technology.
• Cells: HEK293T mGluR4 cells from Multispan, cat# C1191a lot# C1191a-040910 • Culture Media: DMEM+GlutaMAX1+10% dialyzed FBS, 100 mM Sodium Pyruvate, 1 ug/ml puromycin. • Glutamine Starvation Media: DMEM without GlutaMax for plating the cells (glutamine starvation overnight). DMEM high Glucose, without phenol red, glutamine, or sodium pyruvate+10% dialyzed FBS, 100 mM Sodium Pyruvate, 1 ug/ml puromycin, 10 mM Hepes. • Hanks' balanced Salt Solution, HBSS from Invitrogen • Greiner 384 well white low volume high base plate (784075) • cAMP dynamic2 from Cisbio Bioassays • Glutamate: L-Glutamaic acid, monosodium salt, Monohydrate, 98%, from Sigma-Aldrich • Cell Preparation: split cells at 80%-90% confluence. The following day, rinse the cells with DMEM without GlutaMax and change to Glutamine Starvation Media. Incubate overnight. Assay: • Prepare compound plate: Perform compound serial dilution (uses Matrix 4341 plate), using the Bravo liquid handling platform protocol (compound serial dilution) which adds DMSO to columns 1-24 (except cols. 3 and 13). Serial dilute compounds located in columns 3 and 13 at a 1:3 ratio; 10 points (10 ul of 3 mM compound into 20 ul DMSO). Use the Bravo liquid handling platform to transfer 1 ul from the serial dilution plate into Matrix 4314 plate to create stamp plates. Prepare Compound Dilution Buffer: • Dilute 20 mM Forskolin (in DMSO) stock solution in HBSS buffer to make a 20 uM solution (forskolin buffer; 2× solution). To the forskolin buffer, add glutamate to a concentration of 8 uM (compound dilution buffer; 2× EC20 glutamate and forskolin). • Using a multidrop, add 50 ul/well of compound dilution buffer to columns 1-22 of the 2 ul compound stamp plate. Columns 23 and 24 receive forskolin buffer containing 400 uM glutamate (EC100 glutamate; 2× solution). Columns 1 and 2 receive compound dilution buffer containing EC20 glutamate, which is the basal control. • Add a glutamate dose response to row P of compound plate. Prepare the dose response by serial diluting glutamate at a 1:3 ratio in forskolin buffer starting at 2 mM glutamate (2×). Dilute the glutamate 9 times and transfer to compound plate. Prepare Cell Plates: • Harvest cells: Rinse cells with pre-warmed HBSS-10 mM HEPES (without Ca Mg) and dissociate the cells from the flask with versene. Centrifuge the cells, remove the supernatant and suspend in pre-warmed HBSS+10 mM Hepes. Count the cells and centrifuge. Remove the supernatant and suspend the cells in HBSS+Hepes (with Ca Mg) at a density of 400,000 cells/ml. Perform Assay: • Dispense 5 ul from the diluted compound plate into Greiner low volume cell plate using the Bravo liquid handling platform. Using a Multidrop with the small tubing cassette, dispense 5 ul of cells (2000 cells/well) onto the compounds contained in the low volume plates. Incubate the cells at 37° C., 5% CO2 for 30 minutes in the incubator. Assay for cAMP: • Prepare cAMP-d2 and anti-cAMP-Crytate according to the instructions for the two step assay (see Cisbio manual) and add 10 ul of the mixed reagent to each well of the assay plate using the Multidrop. Incubate at room temperature for 60 minutes and read on the Envision plate reader using the mGluR low volume cAMP HTRF 384 well protocol.

T1 sequence (Q14833 33-912): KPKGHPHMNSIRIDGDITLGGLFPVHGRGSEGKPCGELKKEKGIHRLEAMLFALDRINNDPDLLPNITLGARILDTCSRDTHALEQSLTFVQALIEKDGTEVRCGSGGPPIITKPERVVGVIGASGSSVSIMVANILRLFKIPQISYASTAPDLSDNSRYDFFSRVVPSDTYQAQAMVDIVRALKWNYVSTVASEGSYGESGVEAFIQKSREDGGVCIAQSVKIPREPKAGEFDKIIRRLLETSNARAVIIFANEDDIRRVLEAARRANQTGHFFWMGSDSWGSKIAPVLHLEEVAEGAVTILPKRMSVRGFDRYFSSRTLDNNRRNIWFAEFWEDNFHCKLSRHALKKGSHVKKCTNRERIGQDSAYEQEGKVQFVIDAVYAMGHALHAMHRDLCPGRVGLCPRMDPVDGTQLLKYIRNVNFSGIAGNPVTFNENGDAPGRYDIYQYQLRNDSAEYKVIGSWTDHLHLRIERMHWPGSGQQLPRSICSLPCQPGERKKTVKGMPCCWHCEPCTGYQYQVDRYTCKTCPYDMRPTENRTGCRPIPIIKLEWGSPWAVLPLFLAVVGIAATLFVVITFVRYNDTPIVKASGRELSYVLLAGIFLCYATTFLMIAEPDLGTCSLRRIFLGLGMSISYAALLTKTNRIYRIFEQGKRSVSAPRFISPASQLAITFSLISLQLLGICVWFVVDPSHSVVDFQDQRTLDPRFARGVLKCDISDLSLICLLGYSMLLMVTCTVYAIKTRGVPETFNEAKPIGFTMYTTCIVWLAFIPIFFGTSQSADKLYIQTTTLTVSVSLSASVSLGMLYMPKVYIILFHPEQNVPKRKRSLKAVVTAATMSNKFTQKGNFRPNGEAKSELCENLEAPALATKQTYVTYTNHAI

Q: For `O=C1c2ccc(Br)cc2NC2(CCN(Cc3ccc(F)c(F)c3)CC2)N1c1ccc(Cl)cc1` [Compound 25, 7′-Bromo-3′-(4-chlorophenyl)-1-(3,4-difluorobenzyl)-1′H-spiro[piperidine-4,2′-quinazolin]-4′(3′H)-one], which EC50 is on record?
A: The EC50 was under 1 µM.

Q: `CC(c1ccccc1)N1CCC2(CC1)Nc1cc(Br)ccc1C(=O)N2c1ccc(Cl)cc1` (centres unmarked) [Compound 26, 7′-Bromo-3′-(4-chlorophenyl)-1-(1-phenylethyl)-1′H-spiro[piperidine-4,2′-quinazolin]-4′(3′H)-one] was tested. Which EC50 did it give?
A: The EC50 was under 1 µM.

Q: Which EC50 does the source give for `O=C1c2ccc(Br)cc2NC2(CCN(Cc3cccc4cnccc34)CC2)N1c1ccc(OC(F)(F)F)cc1` [Compound 27, 7′-Bromo-1-(isoquinolin-5-ylmethyl)-3′-(4-(trifluoromethoxy)phenyl)-1′H-spiro[piperidine-4,2′-quinazolin]-4′(3′H)-one] here?
A: Its EC50 is under 1 µM.

Q: Which EC50 does the source give for `O=C1c2ccc(Br)cc2NC2(CCN(Cc3ccccc3)CC2)N1c1ccc(OC(F)(F)F)cc1` [Compound 28, 1-Benzyl-7′-bromo-3′-(4-(trifluoromethoxy)phenyl)-1′H-spiro[piperidine-4,2′-quinazolin]-4′(3′H)-one] here?
A: The EC50 was under 1 µM.

Q: Which EC50 does the source give for `CCOC(=O)c1ccc2c(c1)NC1(CCN(Cc3ccc(F)c(F)c3)CC1)N(c1ccc(OC(F)(F)F)cc1)C2=O` [Compound 29, Ethyl 1-(3,4-difluorobenzyl)-4′-oxo-3′-(4-(trifluoromethoxy)phenyl)-3′,4′-dihydro-1′H-spiro[piperidine-4,2′-quinazoline]-7′-carboxylate] here?
A: The EC50 was under 1 µM.

Q: How did the EC50 turn out when `CCOC(=O)c1ccc2c(c1)NC1(CN(C(C)c3ccccc3Cl)C1)N(c1ccc(OC(F)(F)F)cc1)C2=O` (centres unmarked) [Compound 30, Ethyl 1-(1-(2-chlorophenyl)ethyl)-4′-oxo-3′-(4-(trifluoromethoxy)phenyl)-3′,4′-dihydro-1′H-spiro[azetidine-3,2′-quinazoline]-7′-carboxylate] was run?
A: Its EC50 is under 1 µM.

Q: Which EC50 does the source give for `CC(C)OC(=O)c1ccc2c(c1)NC1(CCN(Cc3ccc(F)c(F)c3)CC1)N(c1ccc(OC(F)(F)F)cc1)C2=O` [Compound 31, Isopropyl 1-(3,4-difluorobenzyl)-4′-oxo-3′-(4-(trifluoromethoxy)phenyl)-3′,4′-dihydro-1′H-spiro[piperidine-4,2′-quinazoline]-7′-carboxylate] here?
A: The EC50 was under 1 µM.

Q: How did the EC50 turn out when `O=C1c2ccc(Br)cc2NC2(CCN(Cc3ccc(F)c(F)c3)CC2)N1c1ccc(OC(F)(F)F)cc1` [Compound 32, 7′-Bromo-1-(3,4-difluorobenzyl)-3′-(4-(trifluoromethoxy)phenyl)-1′H-spiro[piperidine-4,2′-quinazolin]-4′(3′H)-one] was run?
A: Its EC50 is under 1 µM.

Q: Which EC50 does the source give for `CCC(c1ccc(F)c(F)c1)N1CCC2(CC1)Nc1cc(Br)ccc1C(=O)N2c1ccc(Cl)cc1` (centres unmarked) [Compound 33, 7′-Bromo-3′-(4-chlorophenyl)-1-(1-(3,4-difluorophenyl)propyl)-1′H-spiro[piperidine-4,2′-quinazolin]-4′(3′H)-one] here?
A: Its EC50 is under 1 µM.

Q: How did the EC50 turn out when `CCOC(=O)c1ccc2c(c1)NC1(CN(C(c3ccc(F)c(F)c3)C(F)(F)F)C1)N(c1ccc(OC(F)(F)F)cc1)C2=O` (centres unmarked) [Compound 34, Ethyl 1-(1-(3,4-difluorophenyl)-2,2,2-trifluoroethyl)-4′-oxo-3′-(4-(trifluoromethoxy)phenyl)-3′,4′-dihydro-1′H-spiro[azetidine-3,2′-quinazoline]-7′-carboxylate] was run?
A: The EC50 was under 1 µM.

Q: With `COC(=O)c1ccc2c(c1)NC1(CN(Cc3ccccc3)C1)N(c1ccc(OC)cc1)C2=O` [Compound 35, Methyl 1-benzyl-3′-(4-methoxyphenyl)-4′-oxo-3′,4′-dihydro-1′H-spiro[azetidine-3,2′-quinazoline]-7′-carboxylate] as the molecule, how does the EC50 read?
A: The EC50 was under 1 µM.

Q: Which EC50 does the source give for `COC(=O)c1ccc2c(c1)NC1(CCN(Cc3ccc(F)c(F)c3)CC1)N(c1ccc(OC(F)(F)F)cc1)C2=O` [Compound 36, Methyl 1-(3,4-difluorobenzyl)-4′-oxo-3′-(4-(trifluoromethoxy)phenyl)-3′,4′-dihydro-1′H-spiro[piperidine-4,2′-quinazoline]-7′-carboxylate] here?
A: Its EC50 is under 1 µM.

Q: How did the EC50 turn out when `COCCOc1ccc(N2C(=O)c3ccc(Br)cc3NC23CCN(Cc2ccc(F)c(F)c2)CC3)cc1` [Compound 37, 7′-bromo-1-(3,4-difluorobenzyl)-3′-(4-(2-methoxyethoxyl)phenyl)-1′H-spiro[piperidine-4,2′-quinazolin]-4′(3′H)-one] was run?
A: The EC50 was under 1 µM.

Q: `COc1ccc(N2C(=O)c3ccc(Cl)cc3NC23CCN(Cc2cccc(Cl)c2)CC3)cc1` [Compound 38, 7′-Chloro-1-(3-chlorobenzyl)-3′-(4-methoxyphenyl)-1′H-spiro[piperidine-4,2′-quinazolin]-4′(3′H)-one] was tested. Which EC50 did it give?
A: Its EC50 is under 1 µM.

Q: For `COc1ccc(N2C(=O)c3ccc(OC)cc3NC23CCN(Cc2ccc(F)c(F)c2)CC3)cc1` [Compound 39, 1-(3,4-Difluorobenzyl)-7′-methoxy-3′-(4-methoxyphenyl)-1′H-spiro[piperidine-4,2′-quinazolin]-4′(3′H)-one], which EC50 is on record?
A: The EC50 was under 1 µM.

Q: For `COc1ccc(N2C(=O)c3ccc(-c4cccnc4)cc3NC23CCN(Cc2ccc(F)c(F)c2)CC3)cc1` [Compound 40, 1-(3,4-Difluorobenzyl)-3′-(4-methoxyphenyl)-7′-(pyridin-3-yl)-1′H-spiro[piperidine-4,2′-quinazolin]-4′(3′H)-one], which EC50 is on record?
A: The EC50 was under 1 µM.

Q: How did the EC50 turn out when `CSc1ccc(N2C(=O)c3ccc(-c4ccco4)cc3NC23CCN(Cc2ccc(F)c(F)c2)CC3)cc1` [Compound 41, 1-(3,4-Difluorobenzyl)-7′-(furan-2-yl)-3′-(4-(methylthio)phenyl)-1′H-spiro[piperidine-4,2′-quinazolin]-4′(3′H)-one] was run?
A: Its EC50 is under 1 µM.

Q: For `N#Cc1cccc(CN2CCC3(CC2)Nc2cc(C(F)(F)F)ccc2C(=O)N3c2ccc(OC(F)(F)F)cc2)c1` [Compound 42, 3-((4′-Oxo-3′-(4-(trifluoromethoxy)phenyl)-7′-(trifluoromethyl)-3′,4′-dihydro-1′H-spiro[piperidine-4,2′-quinazolin]-1-yl)methyl)benzonitrile], which EC50 is on record?
A: Its EC50 is under 1 µM.

Q: For `O=C1c2ccc(Br)cc2NC2(CCN(C(c3cccc(F)c3)C(F)(F)F)CC2)N1c1ccc(OC(F)(F)F)cc1` (centres unmarked) [Compound 43, 7′-Bromo-1-(2,2,2-trifluoro-1-(3-fluorophenyl)ethyl)-3′-(4-(trifluoromethoxy)phenyl)-1′H-spiro[piperidine-4,2′-quinazolin]-4′(3′H)-one], which EC50 is on record?
A: Its EC50 is under 1 µM.

Q: With `COc1ccc(N2C(=O)c3ccccc3NC23CCC(Nc2ccccc2)CC3)cc1` (centres unmarked) [Compound 44, 3′-(4-Methoxyphenyl)-4-(phenylamino)-1′H-spiro[cyclohexane-1,2′-quinazolin]-4′(3′H)-one] as the molecule, how does the EC50 read?
A: The EC50 was under 1 µM.

Q: Which EC50 does the source give for `COc1ccc(N2C(=O)c3ccc(-c4cncs4)cc3NC23CCN(Cc2ccc(F)c(F)c2)CC3)cc1` [Compound 45, 1-(3,4-Difluorobenzyl)-3′-(4-methoxyphenyl)-7′-(thiazol-5-yl)-1′H-spiro[piperidine-4,2′-quinazolin]-4′(3′H)-one] here?
A: Its EC50 is under 1 µM.

Q: Which EC50 does the source give for `O=C1c2ccc(Br)cc2NC2(CCN(Cc3ccccc3OC(F)(F)F)CC2)N1c1ccc(OC(F)(F)F)cc1` [Compound 46, 7′-Bromo-1-(2-(trifluoromethoxy)benzyl)-3′-(4-(trifluoromethoxy)phenyl)-1′H-spiro[piperidine-4,2′-quinazolin]-4′(3′H)-one] here?
A: Its EC50 is under 1 µM.

Q: `O=C1c2ccc(Br)cc2NC2(CCN(Cc3ccnc4ccccc34)CC2)N1c1ccc(OC(F)(F)F)cc1` [Compound 47, 7′-Bromo-1-(quinolin-4-ylmethyl)-3′-(4-(trifluoromethoxy)phenyl)-1′H-spiro[piperidine-4,2′-quinazolin]-4′(3′H)-on] was tested. Which EC50 did it give?
A: Its EC50 is under 1 µM.
